Measured values: US4366159A (priority 1981, dated 1982)
Where a name gives a salt, the structure may show the parent alone. Read-outs that look alike come from different tables or passages of the source.

What was measured:
[1] = anesthetic requirement (MAC) for cyclopropane, tail-clamp technique; format: in vivo, Sprague-Dawley rats
Protocol: (§1) The effect on anesthetic requirements and PaCO2 of combined doses of nalbuphine hydrochloride and morphine sulfate was evaluated in 18 Sprague-Dawley rats (200-350 gms). Anesthetic requirements for cyclopropane anesthetic of each rat was determined using a tail-clamp technique (Munson et al., The Effect of Acute Hypothyroidism and Hyperthyoidism on Cyclopropane Requirements (MAC) in Rats, Anesthesiology 1968; 29:1094-1098). After induction of anesthesia with cyclopropane, the femoral artery and vein were exposed and catheterized with PE50 tubing. Anesthetic requirement as measured by minimal alveolar concentration (MAC) was determined and thereafter nalbuphine hydrochloride was administered intravenously. Upon completion of control measurements, a bolus dose of 0.04 mg/kg of nalbuphine hydrochloride was followed with a constant infusion of 0.1 mg/kg/min. After 45 minutes of continuous infusion, MAC was redetermined and arterial blood sampling repeated. The rat then received either 2, 4 or 8 mg/kg subcutaneously of morphine sulfate and after 30 minutes MAC and arterial blood gas (ABG) values (PaO2, PaCO2, pH, HCO3) redetermined.
The effect of morphine sulfate alone on anesthetic requirement and respiration was evaluated in a separate group of five Sprague-Dawley rats. After baseline measurements of anesthetic requirement (MAC) and ABG values, 2 mg/kg of morphine sulfate was given subcutaneously and after 30 minutes, repeat measurements of anesthetic requirements and blood gases were carried out.
Statistical evaluation was carried out using analysis of variance comparing the groups of animals at different infusion rates of nalbuphine hydrochloride, and for the animals receiving the combined morphine sulfatenalbuphine hydrochloride doses.

[2] = mouse antiphenylquinone writhing test; settings: for % mice blocked: 0:1 (morphine SO4 only)
[3] = Protocol: as §1
The effect of morphine sulfate alone on anesthetic requirement and respiration was evaluated in a separate group of five Sprague-Dawley rats. […]

[4] = human, in vivo
Protocol: The nalbuphine was administered parenterally as each patient was coming out of the anesthesia. […] The respiratory effect of the nalbuphine was established by measurement of arterial PaCO2 using a blood gas analyzer well known in respiratory therapy. Normal PaCO2 is in the range of 35-42 mmHg. All arterial samples were obtained on an inspired oxygen concentration of 100%.

[5] = from a previous study, cited from earlier work

SMILES: Oc1ccc2c3c1O[C@H]1[C@@H](O)CC[C@@]4(O)[C@@H](C2)N(CC2CCC2)CC[C@]314 [Nalbuphine HCl, (-)-17-(cyclobutylmethyl)-4,5α-epoxymorphinan-3,6α, 14-triol]
- MAC Reduction % (Mean ± SEM) ([1]; rat, in vivo): 21.62 ± 0.69%
- ED50 at 10 min., Nalbuphine HCl ([2]; mouse, in vivo, sc): 2.17 mg/kg
- PaCO2 (Mean ± SEM) ([3]; rat, in vivo): 48.31 ± 1.07 mmHg
- duration of analgesia [4]: 8 to 12 h
- emergence from anesthesia [4]: smooth, rapid
- hypoxia and shunt [4]: No patient was hypoxic, nor was there any significant shunt present
- pH after nalbuphine [4]: 7.35±0.6
- respiratory acidosis present before nalbuphine [4]: completely reversed
- respiratory depression resulting from the narcotic [4]: reversed in all cases

SMILES: CN1CC[C@]23c4c5ccc(O)c4O[C@H]2[C@@H](O)C=C[C@H]3[C@H]1C5 [Morphine SO4]
- MAC Reduction % (Mean ± SEM) ([5]; morphine SO4 2 mg/kg sc): 21.80 ± 1.48%
- MAC Reduction % (Mean ± SEM) ([5]; morphine SO4 4 mg/kg sc): 32.63 ± 0.98%
- MAC Reduction % (Mean ± SEM) ([5]; morphine SO4 8 mg/kg sc): 54.87 ± 1.94%
- MAC Reduction % (Mean ± SEM) ([1]; morphine SO4 2 mg/kg sc, 30 min): 22 ± 0.55%
- MAC Reduction % (Mean ± SEM) ([1]; morphine SO4 2 mg/kg sc, 30 min, listed as morphine): 22%
- % mice blocked ([2]; s.c., 10 min, 0.373 mg/kg): 17%
- % mice blocked ([2]; s.c., 10 min, 0.745 mg/kg): 37%
- % mice blocked ([2]; s.c., 10 min, 1.49 mg/kg): 83%
- % mice blocked ([2]; s.c., 10 min, 2.98 mg/kg): 100%
- ED50 at 10 min., Morphine SO4 ([2]; s.c., 10 min, morphine SO4 dose (alone or as component of combination), N = 30 mice/dose, 95% conf. limits printed on following lines): 0.832 mg/kg
- mean PaCO2 compared with comparable MAC reduction dose of nalbuphine ([3]; morphine 2 mg/kg): significantly higher
